Assay results as given in patent publication US20100173956A1, “Use of Quaternary Pyridinium Salts as Vasoprotective Agents” (Pharmena Spolka Akcyjna (Pharmena S.A.), priority 2004, published 2010).
“Also recorded” adds a separate entry of the source.

Assays:
[1] = system: 6-keto-PGF1α (stable PGI2 metabolite); assay: Assay of 6-keto-PGF1α in arterial blood plasma (enzyme immunoassay); format: in vivo, Wistar rats
Method: (§1) The analysis of the thrombolytic response in this experimental set-up was complemented by the assay of 6-keto-PGF1α, TXB2 and PGE2 in arterial blood plasma. For this purpose blood samples (500 μl) were collected in Eppendorff tubes with indomethacin to yield its final concentration of 10 μM, and EDTA to yield the final concentration of 1 mM. Then, the blood samples were spinned for 5 min at 2.000×g. Plasma samples were stored at −70° C. The prostanoids were assayed using the enzyme immunoassay kits (Cayman Chemical Co, Ann Arbor, Mich.).

[2] = system: platelet-rich thrombi; assay: Thrombolytic activity in rats with extracorporal circulation (method of Gryglewski); format: in vivo, Wistar rats; conditions: for thrombolytic response: single injection, fall in weight of thrombi, maximum response
Method: Thrombolytic activity of quaternary pyridinium salts was assessed using original method of Gryglewski et al., (Gryglewski R J, Korbut R, Ocetkiewicz A, Stachura J. In vivo method for quantitation for anti-platelet potency of drugs. Naunyn Schmiedebergs Arch Pharmacol 1978; 302:25-30), the scheme of which was shown on FIG. 1.
(§2) Wistar rats of body weight 300-350 g were anaesthetised (thiopental 30 mg kg^−1 i.p.) and heparinised (unfractionated heparin. 800 i.u. kg^−1 i.v.). Arterial blood pressure was measured from cannulated right carotid artery, and extracorporal circulation was established between left carotid artery and left jugular vein. A collagen strip from rabbit tendon of Achilles was superfused with arterial blood in extracorporal circulation at a rate of 1.5 ml min^−1 and its weight was continuously monitored by an auxotonic Harvard transducer.
(§3) During the initial 20-30 min of superfusion the strip was gaining in weight by 80-120 mg because of deposition of platelet-rich thrombi and then in control conditions stayed unchanged during next 3-5 hrs. Thrombolytic response was detected by a fall in weight of a thrombi. Arterial blood pressure was also monitored, so this model enabled the analysis of thrombolytic and hypotensive action of a compound (FIG. 1).

[3] = system: neutrophils; assay: Latex-induced activation of neutrophils; format: cell-based
[4] = system: TXB2; assay: Assay of TXB2 in arterial blood plasma (enzyme immunoassay); format: in vivo, Wistar rats; conditions: 30 mg/kg i.v.
Method: as §1

[5] = system: platelets; assay: Collagen-induced aggregation in platelet-rich plasma in vitro; format: cell-based; conditions: for effect on collagen-induced aggregation of platelets (FIG. 9): FIG. 9, (1 mg/ml)
[6] = system: PGE2; assay: Assay of PGE2 in arterial blood plasma (enzyme immunoassay); format: in vivo, Wistar rats; conditions: 30 mg/kg i.v.
Method: as §1

[7] = Arterial blood pressure monitoring (hypotensive action); format: in vivo, Wistar rats
Method: as §2, §3

[8] = Anti-atherogenic effect in dyslipidemic patients (plasma TC, TG, HDL); format: in vivo; conditions: 30 mg orally three times a day
Method: The anti-atherogenic effect of MNA^+ was investigated in 15 dyslipidemic patients. The enrollment criteria were: high level of TG (≧250 mg/dl) and low level of HDL (≦35 mg/dl for male, ≦45 mg/dl for female). The mean age of the patients was 61.4 (range 45-81 years). The patients were treated with MNA^+ for 2 weeks. The MNA^+ was administered orally, three times a day, one capsule (30 mg MNA^+) after meal. The plasma levels of TC, TG, HDL were measured at baseline and after 2 weeks of therapy. The level of LDL was measured in those cases, where it was possible (due to high TG level).

1-Methyl-3-acetylpyridinium salt [MAP^+]
change of 6-keto-PGF1α level / release of PGI2 (in words) ([1]; 30 mg/kg i.v.): associated with the release of PGI2 | thrombolytic response (in words) ([2]; 30 mg/kg i.v.): comparable to that induced by 30 mg/kg of MNA^+

Cn1cc(C(N)=O)ccc1=O [2-PYR, 1-methyl-2-pyridone-5-carboxyamide]
duration of thrombolytic response (transient) ([2]; 30 mg/kg i.v.): < 15 min | thrombolytic response (in words) ([2]; 30 mg/kg i.v.): Lack of thrombolytic response; also recorded: failed to induce a significant thrombolytic response; also recorded: did not display a significant thrombolytic activity | thrombolytic response ([2]; 30 mg/kg i.v.): < 10%

c1ccc2c(c1)[I+]c1ccccc1-2 [DPI, reference compound]
effect on latex-induced activation of neutrophils (FIG. 10) [3]: abrogated

C[n+]1cccc(C(=O)NCO)c1 [MNAF^+, 1-methyl-N′-(hydroxymethyl)nicotinamide]
thrombolytic response (in words) ([2]; 30 mg/kg i.v.): comparable to that induced by 30 mg/kg of MNA^+

C[n+]1cccc(C(N)=O)c1 [MNA^+, 1-methylnicotinamide]
change of TXB2 level in arterial plasma [4]: neither TXB2 nor PGE2 levels changed significantly | change of 6-keto-PGF1α level / release of PGI2 (in words) ([1]; 30 mg/kg i.v.): concomitant increase in level of 6-keto-PGF1α | level of 6-keto-PGF1α in arterial plasma ([1]; 30 mg/kg i.v., 15 minutes after injection, before injection 104±7 pg/ml): 460 ± 58 pg/mL | plateau level of 6-keto-PGF1α in arterial plasma ([1]; 30 mg/kg i.v., for at least one hour): around 400 pg/ml | release of 6-keto-PGF1α in the presence of indomethacin ([1]; indomethacin 5 mg/kg): abrogated | inhibition of latex-induced activation of neutrophils ([3]; 1 mM): did not inhibit | effect on latex-induced activation of neutrophils (FIG. 10) [3]: Lack of effect; also recorded: did not inhibit | effect on collagen-induced aggregation of platelets (FIG. 9) [5]: Lack of effect; also recorded: did not inhibit | effect on collagen-induced aggregation in platelet-rich plasma ([5]; in vitro, up to concentration of 10 mM): not affected | change of PGE2 level in arterial plasma [6]: neither TXB2 nor PGE2 levels changed significantly | fall in arterial blood pressure ([7]; 30 mg/kg i.v., during thrombolysis): not associated with a fall in arterial blood pressure | hypotension ([7]; 30-300 mg/kg): did not cause hypotension | change of TC level, baseline to 2 weeks [8]: −15.7% | change of TG level, baseline to 2 weeks [8]: −47.1% | increase of HDL level, baseline to 2 weeks [8]: 36.2% | TC plasma level after 2 weeks ([8]; 15 dyslipidemic patients, baseline 267.0 mg/dl): 225.1 mg/dL | HDL plasma level after 2 weeks ([8]; baseline 39.2 mg/dl): 53.4 mg/dL | TG plasma level after 2 weeks ([8]; baseline 472.6 mg/dl): 249.9 mg/dL | TG/HDL ratio after 2 weeks ([8]; baseline 13.9): 5.8 | thrombolytic response ([2]; 30 mg/kg i.v.): 42±4% | duration of thrombolytic response ([2]; 30 mg/kg i.v., response remained at approximately the same level over the observation period): 2 to 3 h | dose dependence of thrombolysis ([2]; 3-30 mg/kg i.v.): concentration-dependent thrombolysis | dose of maximum thrombolytic response ([2]; i.v., 3-30 mg/kg tested): 30 mg/kg | thrombolytic response in the presence of indomethacin ([2]; indomethacin 5 mg/kg): abrogated

COc1cc(C(C)=O)ccc1O [apocynin, reference compound]
effect on latex-induced activation of neutrophils (FIG. 10) [3]: abrogated

CC(=O)Oc1ccccc1C(=O)O [aspirin, reference compound]
effect on collagen-induced aggregation of platelets (FIG. 9) [5]: abrogated

NC(=O)c1cccnc1 [nicotinamide]
change of 6-keto-PGF1α level / release of PGI2 (in words) ([1]; 30 mg/kg i.v.): did not increase | thrombolytic response (in words) ([2]; 30 mg/kg i.v.): Lack of thrombolytic response; also recorded: failed to induce a significant thrombolytic response | thrombolytic response ([2]; 30 mg/kg i.v.): 9±0.6% | thrombolytic response (in words) ([2]; 30 mg/kg i.v., listed as Nicotinamide): did not display a significant thrombolytic activity

O=C(O)c1cccnc1 [nicotinic acid]
change of 6-keto-PGF1α level / release of PGI2 (in words) ([1]; 30 mg/kg i.v.): did not increase | thrombolytic response (in words) ([2]; 30 mg/kg i.v.): Lack of thrombolytic response; also recorded: failed to induce a significant thrombolytic response; also recorded: did not display a significant thrombolytic activity | thrombolytic response ([2]; 30 mg/kg i.v.): 5±0.9%

C[n+]1cccc(C(=O)[O-])c1 [trigonelline]
thrombolytic response (in words) ([2]; 30 mg/kg i.v.): Lack of thrombolytic response; also recorded: failed to induce a significant thrombolytic response; also recorded: did not display a significant thrombolytic activity | thrombolytic response ([2]; 30 mg/kg i.v.): did not produce any thrombolytic response
